Entries after “also recorded” stand apart in the source; their conditions may differ.
Columns and labels:
[1] = system: ovarian clear cell carcinoma cell lines with known ARID1A mutational status; test: colony formation assay, panel of ovarian clear cell carcinoma cell lines with or without ARID1A mutation; type: cell-based, human; conditions: 12 days
Procedure: After 12 days culture, integrated density of colony formed by the indicated cells was quantified using NIH Image J software, and values were normalized to vehicle control. Data represent triplicates from independent experiments. Error bars represent S.E.M. The p-value was calculated via two-tailed t-test.
Indicated ovarian clear cell carcinoma cell lines with known ARID1A mutational status were treated with the indicated concentration of HDAC6 inhibitor CAY10603 or vehicle control in a colony formation assay. After 12 days culture, integrated density of colony formed by the indicated cells was quantified using NIH Image J software, and values were normalized to vehicle control. Data represent triplicates from independent experiments. Error bars represent S.E.M.
(§1) Colony formation assays were performed as follows. Cell lines were infected with lentivirus pLKO.1-shRNAs or pLKO.1-control with puromycin selection marker. Infected cells were selected with 1 μg/mL of puromycin for 72 hours and the selected cells were seeded in 12-well or 24-well plates. Cell medium was changed every three days with appropriate drug doses for 14 days or until control wells became confluent. Colonies were washed twice with PBS and fixed with 10% methanol and 10% acetic acid in distilled water. Fixed colonies were stained with 0.005% crystal violet. Integrated density was measured using NIH ImageJ software.

[2] = system: ARID1A-mutated TOV21G cells; test: ACY1215 sensitivity of TOV21G cells with or without wildtype ARID1A restoration; type: cell-based, human
Procedure: as §1

[3] = system: cells derived from Apc−/−/Pten−/−/Arid1a−/− and Apc−/−/Pten−/− tumours; test: ACY1215 sensitivity of cells derived from mouse endometrioid tumours; type: cell-based
[4] = system: ARID1A-mutated TOV21G cells; test: apoptosis and growth inhibition with or without p53 knockdown, TOV21G; type: cell-based, human
Procedure: Growth inhibition was calculated based on integrated density as measured in NIH ImageJ, and values were normalized to vehicle control. Data is representative of 3 independent experiments. Error bars represent S.E.M. The p-value was calculated via two-tailed t-test.
FIG. 91 illustrates dose responsive curves of the indicated cells treated with the HDAC6 inhibitor ACY1215; ARID1A wildtype RMG1 and OVCA429 cells were used as controls for comparison; n=4 independent experiments; error bars represent S.E.M. P-value calculated via two-tailed t-test.
FIG. 92 illustrates ARID1A-mutated TOV21G with or without p53 knockdown treated with ACY1215 (1.25 μM) or DMSO controls for 48 hours; percent apoptosis was quantified by FACS analysis based on Annexin V staining; n=3 independent experiments.
FIG. 97 illustrates ARID1A-mutated TOV21G cells with or without endogenous p53 knockdown by a shp53 that targets the 3′ UTR […] region of the human TP53 gene together with a lentivirus encoding a control, wildtype p53 or a p53K12OR mutant—the percentage of surviving cells of the indicated cells treated with ACY1215 was determined by colony formation assay; n=4 independent experiments.
Annexin V and mitochondria membrane potentials were measured as follows. Phosphatidylserine externalization was detected using an Annexin V staining kit (Life Technologies) following the manufacturer's instructions. […]

[5] = system: p53 acetylation (lysine 120, 373, 382) in ARID1A-mutated TOV21G cells; test: immunoblot of p53 acetylation, TOV21G; type: cell-based, human; conditions: 1.25 μM
Procedure: Expression of the indicated proteins was determined by immunoblot. GAPDH expression was used as a loading control.
(§2) For immunoblotting, protein was isolated as described in Bitler et al. Nat. Med. 2015, 21, 231-238. Briefly, protein was extracted with RIPA buffer (150 mM NaCl, 1% NP40, 0.5% sodium deoxycholate, 0.1% SDS, 50 mM Tris pH 8.0, and 1 mM PMSF). Protein was separated on a SDS-PAGE and transferred to PVDF membrane. For immunoblot of p53 post-translation modifications, cells were treated with a proteasome inhibitor MG132 (10 μM) to stabilize p53 protein.

[6] = system: p53K120Ac in ARID1A wild-type RMG1 cells with or without ARID1A knockdown; test: immunoblot of p53K120Ac, RMG1 with or without shARID1A; type: cell-based, human; conditions: 1.25 μM
Procedure: Expression of the indicated proteins was examined by immunoblot. GAPDH expression was used as a loading control.
as §2

[7] = system: p53 target genes (BAX, PUMA, NOXA, CDKN1A) in ARID1A-mutated TOV21G cells; test: RNA-seq of p53 target genes; type: cell-based, human; conditions: 1.25 μM
Description: RNA was extracted and utilized for next generation sequencing (RNA-seq). Expression of p53 target genes known to regulate apoptosis such as BAX, PUMA and NOXA, and known to regulate cell cycle arrest such as CDKN1A were not altered by HDAC6 inhibition in RNA-seq analysis.

[8] = system: ARID1A-mutated TOV21G cells; test: mitochondrial membrane potential (TMRE, FACS), TOV21G; type: cell-based, human
Procedure: Mean of five experimental replicates with S.E.M. p-value calculated via two-tailed t-test.
FIG. 96 illustrates ARID1A-mutated TOV21G cells with or without endogenous p53 knockdown by a shp53 that targets the 3′ UTR region of the human TP53 gene together with a lentivirus encoding a control, wildtype p53 or a p53K12OR mutant—the indicated cells were treated with or without ACY1215 and examined for mitochondrial membrane potential by FACS; n=3 independent experiments.
(§3) Annexin V and mitochondria membrane potentials were measured as follows. Phosphatidylserine externalization was detected using an Annexin V staining kit (Life Technologies) following the manufacturer's instructions. To measure change in mitochondria membrane potential cells were treated with 200 nM of tetramethylrhodamine, ethyl ester (TMRE; Abcam) for 15 min at 37° C. Annexin V and TMRE-positive cells were detected using the LSR18 and analyzed with the FlowJo software module.

[9] = system: ARID1A wild-type RMG1 cells with or without shARID1A; test: mitochondrial membrane potential (TMRE, FACS), RMG1; type: cell-based, human; conditions: 1.25 μM
Procedure: The mitochondria membrane potential was quantified by TMRE using FACS analysis. Data was collected via FACS and is representative of 3 independent experiments.
Error bars represent standard error mean. The p-value was calculated via two-tailed t-test.
as §3

[10] = clinical trials for hematopoietic malignancies; Santo et al. Blood 2012; cited from earlier work

Q: Which “sensitivity of ARID1A-mutated cells compared with ARID1A wild-type cells” value [1] does the source give for `O=C(CCCCCCNC(=O)c1cnc(N(c2ccccc2)c2ccccc2)nc1)NO` [rocilinostat, 2-(diphenylamino)-N-(7-(hydroxyamino)-7-oxoheptyl)pyrimidine-5-carboxamide] here?
A: more sensitive

Q: What about the “effect of restoration of wildtype ARID1A on sensitivity” value [2] of the same compound?
A: reduced the sensitivity

Q: What about the “sensitivity of Apc−/−/Pten−/−/Arid1a−/− tumour cells compared with Apc−/−/Pten−/− tumour cells” value [3] of the same compound?
A: more sensitive

Q: And the “effect of p53 knockdown on apoptosis and growth inhibition induced by the compound” value [4]?
A: significantly impaired the apoptosis and growth inhibition

Q: What about the “rescue of p53 knockdown-mediated impairment of compound-induced growth inhibition” value ([4]; wildtype p53 or p53K120R) of the same compound?
A: wildtype p53 but not the p53K120R mutant rescued

Q: And the “acetylation status of lysine 373 or 382 residue of p53” value [5]?
A: unchanged

Q: And the p53K120Ac level [5]?
A: upregulated

Q: And the “p53K120Ac in ARID1A knockdown cells compared with controls” value [6]?
A: significant increase in p53K120Ac

Q: What about the “expression of p53 target genes (BAX, PUMA, NOXA, CDKN1A)” value [7] of the same compound?
A: not altered

Q: And the “mitochondrial membrane potential in ARID1A-mutated cells” value ([8]; 1.25 μM)?
A: significantly decreased

Q: What about the “dependence of mitochondrial membrane potential decrease” value ([8]; p53 knockdown, wildtype p53 or p53K120R rescue) of the same compound?
A: both p53 and p53K120Ac dependent

Q: And the “mitochondrial membrane potential, ARID1A knockdown compared with controls” value [9]?
A: significantly decreased

Q: And the “tolerability in clinical studies” value [10]?
A: well-tolerated without a dose-limiting toxicity; also recorded: well-tolerated and show minimal toxicity

From patent publication US20190192521A1, “Methods of Treating Arid1A-Mutated Cancers With HDAC6 Inhibitors and EZH2 Inhibitors” (The Wistar Institute of Anatomy and Biology, priority 2016, published 2019)
